# Test results as given in PubChem BioAssay AID248 (DTP/NCI, 2004).
# Where “and” joins values, the source holds several entries; their conditions need not be identical. Equal values may be shown once. Inconclusive results and toxic doses are left out.
# Tested on: L1210 leukemia ip in BDF1 mice, survival T/C
# Assay: NCI In Vivo Anticancer Drug Screen. Data for tumor model L1210 Leukemia (intraperitoneal) in B6D2F1 (BDF1) mice
# Conditions: endpoint: mean survival time, higher = longer survival
# Procedure, shortened: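 Survival endpoint. Drug-treated group vs vehicle group, expressed as T divided by C. Tumor passaged by transplantation.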
# [1] = dose: 100.0 mg/kg/injection, schedule: Q01DX009 (ip), vehicle: Klucel (hydroxypropylcellulose) (HPC)
# [2] = dose: 200.0 mg/kg/injection, schedule: Q01DX009 (ip), vehicle: Klucel (hydroxypropylcellulose) (HPC)
# [3] = dose: 400.0 mg/kg/injection, schedule: Q01DX009 (ip), vehicle: Klucel (hydroxypropylcellulose) (HPC)
# [4] = dose: 100.0 mg/kg/injection, schedule: Q04DX003 (ip), vehicle: Klucel (hydroxypropylcellulose) (HPC)
# [5] = dose: 200.0 mg/kg/injection, schedule: Q04DX003 (ip), vehicle: Klucel (hydroxypropylcellulose) (HPC)
# [6] = dose: 400.0 mg/kg/injection, schedule: Q04DX003 (ip), vehicle: Klucel (hydroxypropylcellulose) (HPC)
# [7] = dose: 100.0 mg/kg/injection, schedule: Q04DX002 (ip), vehicle: Klucel (hydroxypropylcellulose) (HPC)
structure (smiles),measurement,setting,value
OC(C(c1ccccc1)c1ccccn1)(C(F)(F)F)C(F)(F)F (stereo unspecified),T/C,"dose: 100.0 mg/kg/injection, schedule: Q01DX009 (ip), vehicle: saline with Tween-80",106 % of control
same,T/C,"dose: 100.0 mg/kg/injection, schedule: Q04DX003 (ip), vehicle: saline with Tween-80",94 % of control
same,T/C,"dose: 200.0 mg/kg/injection, schedule: Q01DX009 (ip), vehicle: saline with Tween-80",104 % of control
same,T/C,"dose: 200.0 mg/kg/injection, schedule: Q04DX003 (ip), vehicle: saline with Tween-80",100 % of control
same,T/C,"dose: 400.0 mg/kg/injection, schedule: Q01DX009 (ip), vehicle: saline with Tween-80",97 % of control
same,T/C,"dose: 400.0 mg/kg/injection, schedule: Q04DX003 (ip), vehicle: saline with Tween-80",97 % of control
CCN(CC)Cc1ccccc1COC(=O)/C=C/c1ccccc1,T/C,"dose: 100.0 mg/kg/injection, schedule: Q04DX002 (ip), vehicle: saline",108 % of control
same,T/C,"dose: 200.0 mg/kg/injection, schedule: Q04DX002 (ip), vehicle: saline",86 % of control
same,T/C,"dose: 400.0 mg/kg/injection, schedule: Q04DX002 (ip), vehicle: saline",108 % of control
Nc1nc(N)c2cc(CNc3ccc(C(=O)NC(C(=O)O)C(=O)O)cc3)ccc2n1,T/C,"dose: 0.06 mg/kg/injection, schedule: Q01DX001 (ip), vehicle: saline",122 % of control
same,T/C,"dose: 0.06 mg/kg/injection, schedule: Q01DX015 (ip), vehicle: carboxymethylcellulose (CMC)",123 % of control
same,T/C,"dose: 0.25 mg/kg/injection, schedule: Q01DX015 (ip), vehicle: carboxymethylcellulose (CMC)",105 % of control
same,T/C,"dose: 5.0 mg/kg/injection, schedule: Q01DX001 (ip), vehicle: carboxymethylcellulose (CMC)",157 % of control and 173 % of control
same,T/C,"dose: 11.25 mg/kg/injection, schedule: Q01DX001 (ip), vehicle: carboxymethylcellulose (CMC)",91 % of control
same,T/C,"dose: 20.0 mg/kg/injection, schedule: Q01DX001 (ip), vehicle: carboxymethylcellulose (CMC)",89 % of control
COC(=O)N/N=C/c1ccc(NC(C)=O)cc1,T/C,[1],95 % of control
same,T/C,[2],101 % of control
same,T/C,[3],97 % of control
O=S(=O)(Nc1ccccc1)c1ccccc1C#Cc1ccccc1,T/C,"dose: 100.0 mg/kg/injection, schedule: Q01DX001 (ip), vehicle: steriod suspending solution",105 % of control
same,T/C,"dose: 200.0 mg/kg/injection, schedule: Q01DX001 (ip), vehicle: steriod suspending solution",100 % of control
same,T/C,"dose: 400.0 mg/kg/injection, schedule: Q01DX001 (ip), vehicle: steriod suspending solution",97 % of control
NCC(=O)OC(c1ccccc1)(c1ccccc1)c1ccccc1,T/C,[1],96 % of control
same,T/C,[4],98 % of control
same,T/C,[2],96 % of control
same,T/C,[5],88 % of control
same,T/C,[6],89 % of control
CCn1cc([N+](=O)[O-])ccc1=O,T/C,[1],104 % of control
same,T/C,[4],98 % of control
same,T/C,[2],101 % of control
same,T/C,[5],96 % of control
same,T/C,[3],98 % of control
same,T/C,[6],107 % of control
Cc1cc(C)c(NC(=O)c2c(Br)c(Br)c(Br)c(Br)c2C(=O)O)c(C)c1,T/C,[7],101 % of control
same,T/C,"dose: 200.0 mg/kg/injection, schedule: Q04DX002 (ip), vehicle: Klucel (hydroxypropylcellulose) (HPC)",111 % of control
same,T/C,"dose: 400.0 mg/kg/injection, schedule: Q04DX002 (ip), vehicle: Klucel (hydroxypropylcellulose) (HPC)",87 % of control
CCOC(=O)NCC(CCN(C)C)(c1cccc2ccccc12)C(C)C (stereo unspecified),T/C,"dose: 100.0 mg/kg/injection, schedule: Q01DX009 (ip), vehicle: saline",98 % of control
same,T/C,[4],97 % of control
same,T/C,"dose: 200.0 mg/kg/injection, schedule: Q01DX009 (ip), vehicle: saline",107 % of control
same,T/C,[5],97 % of control
OCCN(CC1C(c2ccccc2)C1c1ccccc1)C1CCCCC1 (stereo unspecified),T/C,"dose: 6.25 mg/kg/injection, schedule: Q04DX002 (ip), vehicle: Klucel (hydroxypropylcellulose) (HPC)",98 % of control
same,T/C,"dose: 25.0 mg/kg/injection, schedule: Q04DX002 (ip), vehicle: Klucel (hydroxypropylcellulose) (HPC)",90 % of control
same,T/C,"dose: 50.0 mg/kg/injection, schedule: Q04DX002 (ip), vehicle: Klucel (hydroxypropylcellulose) (HPC)",97 % of control
same,T/C,[7],97 % of control
COc1ccc2c3c1OC1C4(OC)CCC5(c6c(O)ccc(O)c64)C(C2)N(C)CCC315 (stereo unspecified),T/C,"dose: 100.0 mg/kg/injection, schedule: Q01DX001 (ip), vehicle: saline",86 % of control
same,T/C,"dose: 200.0 mg/kg/injection, schedule: Q01DX001 (ip), vehicle: saline",96 % of control
same,T/C,"dose: 400.0 mg/kg/injection, schedule: Q01DX001 (ip), vehicle: saline",94 % of control
